Measured values: patent US7550587B2, “Photosensitizer and method for production thereof” (priority 2001, dated 2009)

Settings: mouse, in vivo
Description: The mice were slaughtered 3 hours after injection (each group consisted of 3 mice). The materials of liver, kidney, spleen, lungs, small intestines, tumor, surrounding muscle tissue as well as from blood, urine, faeces from large intestine weighing 100 mg each were thoroughly homogenised in glass homogenizers supplementing 4 ml of saline solution. For examination of biological fluids (blood, urine) 0,1 ml of each fluid were taken with subsequent dissolution in 4 ml of saline solution. The resulting homogenates were studied on “Perkin-Elmer” spectrofluorimeter (MPF-44A model).

13-carboxy-17-[2-carboxyethyl]-15-formyl-17,18-trans-dihydro-3-vinyl-8-ethyl-2,7,12,18-tetramethylporphyrin [purpurin 5]
time interval of tumour accumulation optimal for photodynamic effect according to selectivity: 3 to 18 h
